Experimental data reported in patent US12661354B2, “DRG-MDM2-4 for use as a novel mouse double minute 2 (MDM2) inhibitor” (BAHCESEHIR UNIVERSITESI, priority 2020, dated 2026).
Where two headings read alike, the source gives them in different places.

How the values were obtained:
[1] = test system: MDA-MB231 cell lines; assay: MTT cell viability assay (IC50); format: cell-based; conditions: Homo sapiens, MDA-MB-231; MDA-MB231, single dose of treatment, 10^−9 to 10^−4 M, 570 nm absorbance
Protocol: (§1) HCT 116 colon cancer and MDA-MB231 breast cancer cell lines are used in cell culture experiments.
(§2) Cells were treated with high-glucose DMEM medium (Biosera) supplemented with 10% FBS (Gibco) and 1× penicillin/streptomycin (Multicell). The assay was designed to contain 10,000 cells for each well of 24-well cell culture plates before being treated with inhibitors.
(§3) Compound of formula I was dissolved with DMSO as 20 mM stock. 24 hours later, the solution was diluted in DMEM with 10% FBS and final concentration of vehicle DMSO was 0.5% at maximum. Therefore, the vehicle group included 0.5% DMSO concentration in experiments. Intensive cultivation of cells causes a decrease in proliferation capacity.
The MTT cell viability assay was used to detect values of half-maximal inhibitory concentration (IC50). Different concentrations of compound of formula I ranging between 10^−9 to 10^−4 M were tested on MDA-MB231 cell lines with single dose of treatment. 570 nm absorbance values were recorded and IC50 values were calculated by dose response-inhibition curves and nonlinear regression analysis on Graphpad Prism 8 software. IC50 value of compound of formula I was determined to be 24 μm (FIG. 1).

[2] = test system: HCT 116 colon cancer and MDA-MB231 breast cancer cell lines; assay: MTT cell proliferation assay; format: cell-based; conditions: for cytotoxicity at 100 µM: read-out: cell viability decreased
Protocol: as §1, §2, §3
For proliferation inhibition analysis, cells were seeded in 24 well plates at 1×10^4 cells/well cells overnight without drug treatment. During the cell proliferation experiments, we performed five days of treatment in each cell line and repeated the experiments three times to check each experiment. No significant difference in cell viability was observed after the third day. Therefore, cells with different drug concentrations were treated for two days. After 48 hours, MTT was applied to the cells and incubated at 37° C. for 4 hours, formazan was solubilized with DMSO (Sigma-Aldrich, St. Louis, USA) and absorbance was measured at 570 nm.
Molecule concentration was 100 μM, the lower concentrations were not shown. Vehicle represents the groups treated with only %0,5 DMSO and Untreated represents no molecule treated group. Molecule responses were evaluated by cell viability which is obtained by spectrophotometric analysis of cells upon MTT treatment at 12 h, 24 h, 48 h and 72 h. […] Statistical significance in graphs was determined by comparing each treatment group with DMSO control using ANOVA testing and significance is considered as p<0.001 (FIG. 2).

[3] = test system: HCT-116 cells; assay: Microscopic evaluation of HCT-116 cells; format: cell-based
Description: Cells were photographed and observed under microscope for three days.
As a result, cell viability decreased by 40% at the end of the first day and reached 60% at the end of the third day. Any cell proliferation change and apoptotic cell morphology were not observed in the untreated and vehicle groups. Moreover, differences in cell morphology were also observed.

[4] = target: MDM2 protein (Homo sapiens, UniProt Q00987); conditions: MDM2 protein versus natural p53 peptide; cited from earlier work
MDM2 protein, sequence (Q00987 whole entry, species assumed): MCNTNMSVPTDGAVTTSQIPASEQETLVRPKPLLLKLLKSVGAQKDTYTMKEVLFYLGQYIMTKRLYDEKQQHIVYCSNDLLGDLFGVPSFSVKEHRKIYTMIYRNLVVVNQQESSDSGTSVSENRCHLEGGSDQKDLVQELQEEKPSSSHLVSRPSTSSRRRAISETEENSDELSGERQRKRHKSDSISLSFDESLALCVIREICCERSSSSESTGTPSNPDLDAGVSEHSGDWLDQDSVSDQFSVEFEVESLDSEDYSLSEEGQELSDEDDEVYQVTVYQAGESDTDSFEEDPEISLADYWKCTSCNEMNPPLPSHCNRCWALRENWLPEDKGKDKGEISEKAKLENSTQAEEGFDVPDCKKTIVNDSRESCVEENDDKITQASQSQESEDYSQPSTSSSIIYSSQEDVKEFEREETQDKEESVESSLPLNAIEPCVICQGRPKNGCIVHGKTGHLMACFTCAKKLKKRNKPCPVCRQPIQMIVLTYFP

IC50 [1] | Compound | cell viability compared to vehicle and untreated groups ([2]; 100 μM, 12 h, 24 h, 48 h and 72 h, ANOVA, p<0.001) | cytotoxicity at 100 µM ([2]; end of the first day) | cytotoxicity at 100 µM ([2]; end of the third day) | morphology of apoptotic cells, onset ([3]; 100 μM concentration) | apoptotic activity, onset ([3]; HCT-116, microscopy) | proliferation and cell structures under microscope ([3]; HCT-116, observed for three days, versus vehicle and untreated) | binding affinity relative to natural p53 peptide [4]
24 µM | Cc1cc(=O)c(C(=O)NCCc2c[nH]c3ccccc23)nn1-c1cccc(C(F)(F)F)c1 [compound of formula I] | statistically significant difference | 40% | 60% | cells having the morphology of apoptotic cells were observed starting from the 3rd hour | clear apoptotic activity from the twelfth hour | reduced proliferation and showed apoptotic cell structures | –
– | MI-319 | – | – | – | – | – | – | 500 fold
